How the values were obtained:
PS19 mice = test: Immunohistochemistry of hippocampus of PS19 mice; assay type: in vivo, mouse
Source text: FIG. 12A-12F illustrate reduced phospho-Tau accumulation in transgenic mice treated with AZD0530. FIG. 12A: Representative images of AT8 immunoreactivity in the dentate gyrus (DG) of the hippocampus in 9-month-old PS19 mice after 7 months of treatment with AZD0530 or Vehicle. Scale bar, […]. FIG. 12B: Quantification of AT8-positive area (%) in the dentate gyrus of the hippocampus in 9-month-old PS19 and WT mice after 7 months of treatment. Data are mean±SEM. n=7-10/group, each dot is one mouse. […] FIG. 12C: Representative images of immunofluorescent staining for AT8 in the CA1 of the hippocampus in 9-month-old PS19 and WT mice after 7 months of treatment. Scale bar, […]. FIG. 12D: Quantification of AT8-positive area in the CA1 of the hippocampus in 9-month-old PS19 and WT mice after 7 months of treatment. Data are mean±SEM. n=7-10/group, each dot is one mouse. […] FIG. 12E: Representative images of immunofluorescent staining for PHF1 in the CA1 of the hippocampus in 9-month-old PS19 and WT mice after 7 months of treatment. Scale bar, […]. FIG. 12F: Quantification of PHF1-positive area in the CA1 of the hippocampus in 9-month-old PS19 and WT mice after 7 months of treatment. Data are mean±SEM. n=7-10/group, each dot is one mouse.
FIGS. 13A-13D illustrate that chronic Fyn inhibition prevents glial activation in mutant Tau transgenic mice. FIG. 13A: Representative images of CD68 and Ibal double immunostaining in the CA3 region of the hippocampus from 9-month-old PS19 and WT mice after 7 months of treatment with AZD0530 or Vehicle. Scale bar, 20 μm. FIG. 13B: Quantification of CD68-positive area (%) within Ibal-immuoreative area in the CA3 segment of the hippocampus from 9-month-old PS19 and WT mice after 7 months of treatment. Data are as mean±SEM. n=7-10/group, each dot is one mouse. *p<0.05; One-way ANOVA with Dunnett's multiple comparisons test. FIG. 13C: Representative images of immunofluorescent staining GFAP in the dentate gyrus (DG) of the hippocampus in 9-month-old PS19 and WT mice after 7 months of treatment. Scale bar, 20 μm. FIG. 13D: Quantification of GFAP-positive area (%) in the dentate gyrus of the hippocampus in 9-month-old PS19 and WT mice after 7 months of treatment. n=7-10/group, each dot is one mouse. Data are mean±SEM. *p<0.05; One-way ANOVA with Dunnett's multiple comparisons test.
FIGS. 14A-14B illustrate the finding that loss of presynaptic marker SV2A in P301S Tau transgenic mice is rescued by Fyn inhibition. FIG. 14A: Representative images of immunofluorescent staining for SV2A in the CA3 region of the hippocampus from 9-month-old PS19 and WT mice after 7 months of treatment with AZD0530 or Vehicle. Dashed lines represent the divide between the cell body layer and synaptic region. The cell bodies in the image were used to capture similar ROI from each section. Scale bar, 20 μm. FIG. 14B: Quantification of SV2A-positive area (%) in the CA3 of the hippocampus in 9-month-old PS19 and WT mice after 7 months of treatment. Data are mean±SEM. n=7-10/group, each dot is one mouse.
FIGS. 19A-19D illustrate low magnification survey of gliosis in PS19 mice unaffected by AZD0530. FIG. 19A: Representative images of Ibal immunostaining in the hippocampus in 9-month-old PS19 and WT mice after 7 months of treatment. Scale bar, 100 m. FIG. 19B: Quantification of Ibal-positive area (%) in the hippocampus in 9-month-old PS19 and WT mice collected after 7 months of treatment. Data are mean±SEM. n=7-10/group. One-way ANOVA. FIG. 19C: Representative images of immunofluorescent staining GFAP in the hippocampus in 9-month-old PS19 and WT mice after 7 months of treatment. Scale bar, 100 μm. FIG. 19D: Quantification of GFAP-positive area (%) in the hippocampus in 9-month-old PS19 and WT mice collected after 7 months of treatment. Data are mean±SEM. n=7-10/group. One-way ANOVA.
Immunohistochemistry was performed as previously described (Kaufman et al., 2015, Ann Neurol 77:953-971) with slight modifications. […]

[1] = Phase Ib study, CSF and plasma saracatinib levels (LC/MS/MS); assay type: in vivo, human; conditions: for estimated human brain concentration: using ratio of CSF:Brain in mouse; for trough CSF / free concentration of saracatinib in plasma / increase in CSF level: human; for free concentration of saracatinib in plasma: from trough CSF levels and FIG. 8 correlation
Procedure: Each point is from a different individual. The different dose groups are illustrated with different colors.
Each point represents trough CSF saracatinib level from a different human subject for the left three columns. The mouse trough CSF values are derived from brain levels at the 5 mg/kg/d dose that rescued memory deficits in FIGS. 3-5. Bars represent mean+sem.
Plasma samples are analyzed using solid-phase extraction followed by HPLCMS/MS. […] Calibration, quality control (QC) or blank plasma samples (200 μL) are pipetted into a standard 96-well plate. The appropriate internal standard (20 μL) is added to all samples (except the double blank to which 20 μL of methanol is added). 2% ammonium solution (1000 μL) is added to all wells and mixed. Solid-phase extraction is performed using Oasis HLB 30 mg 1 mL 96-well plates. The samples are conditioned with 1 mL methanol then 1 mL 2% ammonium solution. A 1 mL sample is loaded, washed with 1 mL 25:75, v:v methanol:water and eluted with 0.8 mL methanol. The samples are dried under oxygen-free nitrogen at 35° C. The dry residues are reconstituted in 200 μL of mobile phase, vortex mixed and transferred to 96-well plates. The vials are loaded onto HPLC-MS/MS and injected onto the reversed phase HPLC system. Calibration samples are prepared and analyzed in duplicate at LLOQ (lower limit of quantification) and ULOQ (upper limit of quantitation) and singly at all other levels. Independently prepared QC samples covering the calibration range are analyzed in duplicate and in triplicate at the dilution QC level. Plasma concentration data are quantified using an HPLC-MS/MS method and analyzed by standard methods using WinNonLin version 4.1 (Pharsight Corporation, Mountain View, Calif.).
Subjects were enrolled in three cohorts of 8 subjects each.
In certain embodiments, obtaining the scans worked as a pilot to the collection of brain metabolism data for the Phase 2a trial. In addition, saracatinib levels were measured in this study using a GLP-validated LC/MS/MS assay. […] CSF levels are about a third of plasma free drug levels.

[2] = 9-month-old PS19 mice, 7 months of treatment

CN1CCN(CCOc2cc(OC3CCOCC3)c3c(Nc4c(Cl)ccc5c4OCO5)ncnc3c2)CC1 [saracatinib, N-(5-chloro-benzo[d][1,3]dioxol-4-yl)-7-(2-(4-methylpiperazin-1-yl)ethoxy)-5-(tetrahydro-2H-pyran-4-yloxy)quinazolin-4-amine]
AT8 (phospho-Tau Ser202/Thr205) immunoreactivity in DG and CA1 (PS19 mice; [2]): significantly mitigates the increase
CD68 immunoreactivity in Iba1-immunoreactive area of CA3 (PS19 mice; [2]): almost completely prevented the increase
SV2A immunoreactivity in CA3 (PS19 mice; [2]): fully rescued the reduction
astrocytosis (GFAP-immunoreactive area in dentate gyrus) (PS19 mice; [2]): significantly attenuated
gliosis (Iba1, GFAP) in hippocampus, low magnification survey (PS19 mice; [2]): unaffected
PHF-1 (phospho-Tau Ser396/Ser404) immunoreactive area in CA1 (PS19 mice; 9-month-old PS19 mice, 7 months of treatment, vs Vehicle): significant decrease
PY18 Tau levels (PS19 mice; AZD0530-treated PS19 samples): no change
estimated human brain concentration ([1]; 50 mg saracatinib free base): 3 to 7 nM
estimated human brain concentration ([1]; 100 mg saracatinib free base): 7 to 27 nM
estimated human brain concentration ([1]; 125 mg saracatinib free base): 8 to 46 nM
trough CSF ([1]; 50 mg saracatinib free base daily): 0.9 to 2.2 nM
free concentration of saracatinib in plasma ([1]; 50 mg): 2.6 to 6.5 nM
trough CSF ([1]; 100 mg saracatinib free base daily): 2.1 to 8.3 nM
free concentration of saracatinib in plasma ([1]; 100 mg): 6.2 to 24.4 nM
trough CSF ([1]; 125 mg saracatinib free base daily): 2.5 to 14.0 nM
free concentration of saracatinib in plasma ([1]; 125 mg): 7.4 to 41.2 nM
increase in CSF level ([1]; from 50 to 100 mg): three-fold
increase in CSF level ([1]; from 100 to 125 mg): two-fold

Reference: US11241434B2, “Compositions and methods for improving cognition in a subject” (Yale University, priority 2013, dated 2022)
